Measurements reported in BindingDB's records for doi:10.7270/Q25D8Q92 (Burnham Center For Chemical Genomics, 2011).

Target: T1, Bcl-2-related protein A1 (Mus musculus, UniProt Q07440)
T1 sequence (Q07440 whole entry): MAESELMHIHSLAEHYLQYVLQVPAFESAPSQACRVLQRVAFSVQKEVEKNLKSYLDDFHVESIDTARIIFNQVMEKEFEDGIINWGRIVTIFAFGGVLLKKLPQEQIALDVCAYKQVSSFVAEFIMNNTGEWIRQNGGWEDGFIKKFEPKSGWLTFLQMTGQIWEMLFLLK
Experiment: Bfl-1 activity inhibition – biochemical, dose response (AID 504689)

Row | IC50 | SMILES
1 | 11.4 µM | COc1ccc(CN=Nc2cc(C)nc3ccc(OC)cc23)c(OC)c1
2 | > 20 µM | NC(=S)NN=C1C(=O)N(C2OC(=O)c3ccccc32)c2ccccc21 (stereo unspecified) [[(Z)-[2-oxo-1-(3-oxo-1H-isobenzofuran-1-yl)-3-indolylidene]amino]thiourea]
3 | > 20 µM | COCCNC(=S)NNC1=c2cc(C)cc(C)c2=NC1=O [MLS000774564]
4 | > 20 µM | O=C1N=c2ccccc2=C1NNC(=S)NCC1CCCO1 (stereo unspecified)
5 | 3.44 µM | CCN(CC)CCOC(=O)c1ccc(N=CC(C#N)c2nc(-c3ccc(OC)c(OC)c3)cs2)cc1 (stereo unspecified) [SMR000434079]
6 | > 20 µM | CCOC(=O)C1C(COC(=O)c2cc(OC)c(OC)c(OC)c2)=NC(=O)NC1C (stereo unspecified) [MLS001161811]

Second part, the compound before the results:

Row | SMILES | IC50
7 | C#CCOCCOCCOCCNc1nc(N2CCN(C(=O)CCCCCCCCCCNC(=O)[C@@H](CCSC)n3cc(CCO)nn3)CC2)nc(N2CCN(C(=O)CCCCCCCCCCNC(=O)[C@H](CCC(=O)O)n3cc(CCCCCN)nn3)CC2)n1 [MLS002153730] | > 20 µM
8 | C#CCOCCOCCOCCNc1nc(N2CCN(C(=O)CCCCCCCCCCNC(=O)Cn3cc(CCCCCN)nn3)CC2)nc(N2CCN(C(=O)CCCCCCCCCCNC(=O)[C@H]([C@@H](C)CC)n3cc(CCCCN=C(N)N)nn3)CC2)n1 [KG-RI] | 9.73 µM
9 | C#CCOCCOCCOCCNc1nc(N2CCN(C(=O)CCCCCCCCCCNC(=O)[C@H](CCCCN)n3cc(CCCC(=O)O)nn3)CC2)nc(N2CCN(C(=O)CCCCCCCCCCNC(=O)[C@H](CCCN=C(N)N)n3cc(C[C@@H](C)CC)nn3)CC2)n1 [EK-IR] | 13.9 µM
10 | C#CCOCCOCCOCCNc1nc(N2CCN(C(=O)[C@H](CCCCN)n3cc([C@@H](N)C(C)CC)nn3)CC2)nc(N2CCN(C(=O)[C@H](Cc3ccc(O)cc3)n3cc([C@@H](N)C(C)CC)nn3)CC2)n1 (stereo partly specified) [SMR000391090] | > 20 µM
11 | C#CCOCCOCCOCCNc1nc(N2CCN(C(=O)[C@H](CCCCN)n3cc([C@@H](N)C(C)CC)nn3)CC2)nc(N2CCN(C(=O)[C@H](Cc3cc4ccccc4[nH]3)n3cc([C@@H](N)CC(C)C)nn3)CC2)n1 (stereo partly specified) [SMR000391070] | > 20 µM
